Read-outs that look alike come from different tables or passages of the source. Starred links: 1 amine or outer side, 2 acyl side, 3 side chain; linkers in the order of their positions; H or OH if unused. Positions of bridges follow the written chain, without caps; N, C: chain ends. Non-standard residues stand in square brackets, D forms with d. Residues, ends and D or L forms follow the SMILES beside them. ξ: configuration not given here. *: point of attachment. NMeF = CN[C@@H](Cc1ccccc1)C(=O)O; NMeGABA = CN(CCCC(=O)[*:2])[*:1]; dNMeF = CN[C@H](Cc1ccccc1)C(=O)O; hPhe = N[C@@H](CCc1ccccc1)C(=O)O; NMeL = CN[C@@H](CC(C)C)C(=O)O; NMeV = CN[C@H](C(=O)O)C(C)C; NMeAbu = CC[C@H](NC)C(=O)O; NMeS = CN[C@@H](CO)C(=O)O; NMeA = CN[C@@H](C)C(=O)O; Piperidide = C1CCN(*)CC1; Abu = CC[C@H](N)C(=O)O; Isopentyl = CC(C)CC*; ξS = NC(CO)C(=O)O; Sar = CNCC(=O)O; tBu = CC(C)(C)*
Experiment: Caco-2 membrane permeability, improved method as used in the following Examples (96-well, 20 to 24 h preincubation)
Assay type: in vitro ADME
Details: human
Outline: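 Papp (cm/sec) was derived from LC/MS of basal samples collected 180 min after apical dosing in FaSSIF/HBSS pH 6.0 with 1% DMSO, against a basal HBSS pH 7.4 receiver containing 4% BSA. Three-week Caco-2 cultures were first preincubated with compound in DMEM+FaSSIF at 37 °C for 20–24 h.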

| SMILES | Papp A→B at 180 min (Caco-2, Caco-2) | also measured |
| --- | --- | --- |
| CC(C)C[C@@H]1NC(=O)[C@H]([C@@H](C)O)NC(=O)[C@H](CC(C)C)N(C)C(=O)C[C@@H](C(=O)N2CCCCC2)NC(=O)[C@H](COC(C)(C)C)NC(=O)[C@H](Cc2ccccc2)NC(=O)[C@H](C)N(C)C(=O)[C@H](Cc2ccccc2)NC(=O)CN(C)C(=O)[C@H](Cc2ccccc2)N(C)C(=O)[C@H](Cc2ccccc2)N(C)C1=O [pd245] ([NMeL]TL[NMeF][NMeF][Sar]F[NMeA]FS(tBu)D-Piperidide; lactam N-11) |  | Papp A→B at 180 min (Caco-2, Caco-2 (cm/sec)): 0.019 ×10⁻⁶ cm/s |
| CC(C)C[C@@H]1NC(=O)CN(C)C(=O)[C@H](Cc2ccccc2)N(C)C(=O)[C@@H](C)NC(=O)C[C@@H](C(=O)N2CCCCC2)NC(=O)[C@H](Cc2ccccc2)N(C)C(=O)[C@H](Cc2ccccc2)N(C)C(=O)[C@H](COC(C)(C)C)NC(=O)[C@H](CC(C)C)N(C)C(=O)[C@H](Cc2ccccc2)NC(=O)[C@H]([C@@H](C)O)NC1=O [pd246] ([dA][NMeF][Sar]LTF[NMeL]S(tBu)[NMeF][NMeF]D-Piperidide; lactam N-11) |  | Papp A→B at 180 min (Caco-2, Caco-2 (cm/sec)): 0.014 ×10⁻⁶ cm/s |
| CC(C)C[C@H]1C(=O)NCC(=O)N[C@H](C(=O)N(C)[C@@H](Cc2ccccc2)C(=O)N(C)[C@@H](Cc2ccccc2)C(=O)N[C@@H](C)C(=O)N2CCCCC2)CC(=O)N[C@@H](C)C(=O)N[C@@H]([C@@H](C)O)C(=O)N(C)[C@@H](C)C(=O)N(C)[C@@H](Cc2ccccc2)C(=O)N[C@@H](C(C)C)C(=O)N(C)[C@@H](Cc2ccccc2)C(=O)N1C [pd247] (AT[NMeA][NMeF]V[NMeF][NMeL]GD[NMeF][NMeF]A-Piperidide; lactam N-9) |  | Papp A→B at 180 min (Caco-2, Caco-2 (cm/sec)): 0.087 ×10⁻⁶ cm/s |
| CC(C)CCOC[C@@H]1NC(=O)[C@H](CC(C)C)N(C)C(=O)CN(C)C(=O)[C@H]([C@@H](C)O)NC(=O)[C@H](CC(C)C)N(C)C(=O)[C@H](CC(C)C)NC(=O)[C@H](Cc2ccccc2)N(C)C(=O)[C@@H](C)NC(=O)C[C@@H](C(=O)N2CCCCC2)NC(=O)[C@H](CC(C)C)N(C)C(=O)[C@@H](Cc2ccccc2)N(C)C1=O [pd300] ([dA][NMeF]L[NMeL]T[Sar][NMeL]S(Isopentyl)[dNMeF][NMeL]D-Piperidide; lactam N-11) | 1.9 ×10⁻⁶ cm/s |  |
| CC(C)CCOC[C@@H]1NC(=O)[C@H](Cc2ccccc2)N(C)C(=O)[C@@H](C)NC(=O)C[C@@H](C(=O)N2CCCCC2)NC(=O)[C@H](CC(C)C)N(C)C(=O)[C@H](Cc2ccccc2)N(C)C(=O)[C@H](COC(C)(C)C)NC(=O)[C@H](CC(C)C)N(C)C(=O)CN(C)C(=O)[C@H]([C@@H](C)O)NC(=O)[C@H](CC(C)C)N(C)C1=O [pd301] ([dA][NMeF]S(Isopentyl)[NMeL]T[Sar][NMeL]S(tBu)[NMeF][NMeL]D-Piperidide; lactam N-11) | 1.7 ×10⁻⁶ cm/s |  |
| CC[C@H](C)[C@@H]1NC(=O)[C@H](CC(C)C)N(C)C(=O)CCCN(C)C(=O)C[C@@H](C(=O)N2CCCCC2)NC(=O)[C@H](CC(C)C)N(C)C(=O)[C@H](C)N(C)C(=O)[C@H]([C@@H](C)O)NC(=O)[C@H](CC(C)C)N(C)C(=O)[C@H](COCCC(C)C)NC(=O)[C@H](Cc2ccccc2)N(C)C(=O)[C@H](Cc2ccccc2)N(C)C1=O [pd302] ([NMeGABA][NMeL]I[NMeF][NMeF]S(Isopentyl)[NMeL]T[NMeA][NMeL]D-Piperidide; lactam N-11) | 1.4 ×10⁻⁶ cm/s |  |
| CC(C)CCOC[C@@H]1NC(=O)[C@H](CC(C)C)N(C)C(=O)CCCN(C)C(=O)C[C@@H](C(=O)N2CCCCC2)NC(=O)[C@H](CC(C)C)N(C)C(=O)[C@H](C)N(C)C(=O)[C@H]([C@@H](C)O)NC(=O)[C@H](CC(C)C)N(C)C(=O)[C@H](COC(C)(C)C)NC(=O)[C@H](Cc2ccccc2)N(C)C(=O)[C@H](Cc2ccccc2)N(C)C1=O [pd303] ([NMeGABA][NMeL]S(Isopentyl)[NMeF][NMeF]S(tBu)[NMeL]T[NMeA][NMeL]D-Piperidide; lactam N-11) | 1 ×10⁻⁶ cm/s |  |
| CC(C)CCOC[C@@H]1NC(=O)[C@H](C)N(C)C(=O)C[C@@H](C(=O)N2CCCCC2)NC(=O)[C@H](CC(C)C)N(C)C(=O)CN(C)C(=O)[C@H]([C@@H](C)O)NC(=O)[C@H](CC(C)C)N(C)C(=O)[C@H](Cc2ccccc2)N(C)C(=O)[C@H](C(C)C)NC(=O)[C@H](Cc2ccccc2)N(C)C(=O)[C@H](CC(C)C)N(C)C1=O [pd304] ([NMeA]S(Isopentyl)[NMeL][NMeF]V[NMeF][NMeL]T[Sar][NMeL]D-Piperidide; lactam N-11) | 2.2 ×10⁻⁶ cm/s |  |
| CC(C)CCOCC1NC(=O)[C@H](CC(C)C)N(C)C(=O)[C@H](Cc2ccccc2)N(C)C(=O)CN(C)C(=O)[C@H]([C@@H](C)O)NC(=O)[C@H](CC(C)C)N(C)C(=O)[C@H](C(C)C)NC(=O)[C@H](Cc2ccccc2)N(C)C(=O)CN(C)C(=O)C[C@@H](C(=O)N2CCCCC2)NC(=O)[C@H](CC(C)C)N(C)C1=O (stereo partly drawn) [pd305] ([Sar][NMeF]V[NMeL]T[Sar][NMeF][NMeL][ξS](Isopentyl)[NMeL]D-Piperidide; lactam N-11) | 2.3 ×10⁻⁶ cm/s |  |
| CC[C@H]1C(=O)N[C@@H]([C@@H](C)O)C(=O)N(C)CC(=O)N(C)[C@@H](COCCC(C)C)C(=O)N[C@@H](CC(C)C)C(=O)N(C)[C@@H](Cc2ccccc2)C(=O)N(C)[C@@H](CC(C)C)C(=O)N[C@H](C(=O)N2CCCCC2)CC(=O)N[C@H](C(C)C)C(=O)N(C)[C@@H](Cc2ccccc2)C(=O)N[C@@H](CC(C)C)C(=O)N1C [pd306] ([dV][NMeF]L[NMeAbu]T[Sar][NMeS](Isopentyl)L[NMeF][NMeL]D-Piperidide; lactam N-11) | 1.2 ×10⁻⁶ cm/s |  |
| CC[C@@H]1NC(=O)[C@H](Cc2ccccc2)N(C)C(=O)[C@H](COCCC(C)C)N(C)C(=O)[C@H](CC(C)C)NC(=O)[C@H](C)N(C)C(=O)C[C@@H](C(=O)N2CCCCC2)NC(=O)[C@H](CC(C)C)N(C)C(=O)CN(C)C(=O)[C@H]([C@@H](C)O)NC(=O)[C@H](CC(C)C)N(C)C(=O)[C@H](Cc2ccccc2)N(C)C1=O [pd307] ([NMeA]L[NMeS](Isopentyl)[NMeF][Abu][NMeF][NMeL]T[Sar][NMeL]D-Piperidide; lactam N-11) | 2.9 ×10⁻⁶ cm/s |  |
| CC(C)CCOC[C@H]1C(=O)N[C@@H]([C@@H](C)O)C(=O)N(C)CC(=O)N(C)[C@@H](CC(C)C)C(=O)N[C@H](C(=O)N2CCCCC2)CC(=O)N(C)[C@@H](C)C(=O)N[C@@H](CC(C)C)C(=O)N(C)[C@@H](CC(C)C)C(=O)N(C)[C@@H](Cc2ccccc2)C(=O)N[C@@H](CC(C)C)C(=O)N(C)[C@@H](Cc2ccccc2)C(=O)N1C [pd308] ([NMeA]L[NMeL][NMeF]L[NMeF][NMeS](Isopentyl)T[Sar][NMeL]D-Piperidide; lactam N-11) |  | Papp A→B at 180 min (Papp, Caco-2 membrane permeability, improved method, read-out: Caco-2): 2.1 ×10⁻⁶ cm/s |
| CC(C)C[C@H]1C(=O)N(C)[C@@H](Cc2ccccc2)C(=O)N[C@@H](COC(C)(C)C)C(=O)N(C)[C@@H](C)C(=O)N[C@H](C(=O)N2CCCCC2)CC(=O)N(C)[C@@H](C)C(=O)N(C)[C@@H](Cc2ccccc2)C(=O)N[C@@H](CCc2ccccc2)C(=O)N(C)[C@@H](CC(C)C)C(=O)N[C@@H]([C@@H](C)O)C(=O)N(C)CC(=O)N1C [pd310] ([NMeA][NMeF][hPhe][NMeL]T[Sar][NMeL][NMeF]S(tBu)[NMeA]D-Piperidide; lactam N-11) | 1.6 ×10⁻⁶ cm/s |  |
| CC(C)C[C@H]1C(=O)N(C)[C@@H](Cc2ccccc2)C(=O)N[C@H](C(=O)N2CCCCC2)CC(=O)N(C)[C@@H](C(C)C)C(=O)N[C@@H](C)C(=O)N(C)[C@@H](Cc2ccccc2)C(=O)N(C)[C@@H](CC(C)C)C(=O)N(C)CC(=O)N[C@@H]([C@@H](C)O)C(=O)N(C)[C@@H](C(C)C)C(=O)N[C@@H](CCc2ccccc2)C(=O)N1C [pd311] ([NMeV]A[NMeF][NMeL][Sar]T[NMeV][hPhe][NMeL][NMeF]D-Piperidide; lactam N-11) | 2.6 ×10⁻⁶ cm/s |  |
| CC(C)C[C@@H]1NC(=O)[C@H](Cc2ccccc2)N(C)C(=O)[C@@H](C(C)C)NC(=O)C[C@@H](C(=O)N2CCCCC2)NC(=O)[C@H](C)N(C)C(=O)[C@H](CC(C)C)N(C)C(=O)[C@H](CCc2ccccc2)NC(=O)[C@H](CC(C)C)N(C)C(=O)CN(C)C(=O)[C@H]([C@@H](C)O)NC(=O)[C@H](CC(C)C)N(C)C1=O [pd312] ([dV][NMeF]L[NMeL]T[Sar][NMeL][hPhe][NMeL][NMeA]D-Piperidide; lactam N-11) | 1.5 ×10⁻⁶ cm/s |  |
| CC(C)C[C@H]1C(=O)N[C@@H](CCc2ccccc2)C(=O)N(C)[C@@H](Cc2ccccc2)C(=O)N(C)[C@@H](CC(C)C)C(=O)N[C@H](C(=O)N2CCCCC2)CC(=O)N[C@H](C(C)C)C(=O)N(C)[C@@H](C)C(=O)N[C@@H](C(C)C)C(=O)N(C)[C@@H](CC(C)C)C(=O)N[C@@H]([C@@H](C)O)C(=O)N(C)CC(=O)N1C [pd313] ([dV][NMeA]V[NMeL]T[Sar][NMeL][hPhe][NMeF][NMeL]D-Piperidide; lactam N-11) | 2.5 ×10⁻⁶ cm/s |  |
| CC(C)C[C@H]1NC(=O)C[C@@H](C(=O)N2CCCCC2)NC(=O)[C@H](C)N(C)C(=O)[C@H](CC(C)C)N(C)C(=O)[C@H](COC(C)(C)C)NC(=O)[C@H](CC(C)C)N(C)C(=O)CN(C)C(=O)[C@H]([C@@H](C)O)NC(=O)[C@H](CC(C)C)N(C)C(=O)[C@H](CCc2ccccc2)NC(=O)[C@H](Cc2ccccc2)N(C)C1=O [pd314] ([dL][NMeF][hPhe][NMeL]T[Sar][NMeL]S(tBu)[NMeL][NMeA]D-Piperidide; lactam N-11) | 1.4 ×10⁻⁶ cm/s |  |
| CC(C)C[C@H]1C(=O)N[C@@H](COC(C)(C)C)C(=O)N(C)[C@@H](Cc2ccccc2)C(=O)N(C)[C@@H](CC(C)C)C(=O)N[C@H](C(=O)N2CCCCC2)CC(=O)N[C@H](C(C)C)C(=O)N(C)[C@@H](CC(C)C)C(=O)N[C@@H](CCc2ccccc2)C(=O)N(C)[C@@H](CC(C)C)C(=O)N[C@@H]([C@@H](C)O)C(=O)N(C)CC(=O)N1C [pd315] ([dV][NMeL][hPhe][NMeL]T[Sar][NMeL]S(tBu)[NMeF][NMeL]D-Piperidide; lactam N-11) | 1.7 ×10⁻⁶ cm/s |  |
